Results from ChEMBL document CHEMBL4196095, “Design and synthesis of novel pyrrolo[2,3-a]carbazoles: 7-Chloro-2-oxo-3a-(2'-oxo-2',3'-dihydro-1'H-indol-3'-yl)-2,3,3a,4,5,10-hexahydro-pyrrolo[3,2-a]carbazole-1-carbonitrile as an efficient anticancer agent” (Eur J Med Chem, 2018).
Converted amounts (≈) assume the structure as drawn.

Experiments:
[1] = Antioxidant activity assessed as DPPH radical scavenging activity incubated under dark condition for 30 mins; format: functional
[2] = test system: HCT-15; assay: Cytotoxicity against human HCT15 cells assessed as reduction in cell viability after 24 hrs by MTT assay; format: functional, cell-based; conditions: HCT-15, 24 h

Row | IC50 [1] [µg/mL] | Compound | IC50 [2] [µM]
1 | 28.918 (≈ 73.3 µM) | Cc1cccc2c3c([nH]c12)C1=C(C#N)C(=O)NC1(C1C(=O)Nc2ccccc21)CC3 (configuration not stated) | 31.6
2 | 33.936 (≈ 70.8 µM) | Cc1cccc2c3c([nH]c12)C1=C(C#N)C(=O)NC1(C1c2ccccc2-c2nc4ccccc4nc21)CC3 (configuration not stated) | 23.7
3 | 42.31 (≈ 88.2 µM) | Cc1ccc2[nH]c3c(c2c1)CCC1(C2c4ccccc4-c4nc5ccccc5nc42)NC(=O)C(C#N)=C31 (configuration not stated) | 35.9
4 | > 100 | Cc1cccc2c3c([nH]c12)C1=C(C#N)C(=O)NC1(C1C(=O)c2cccc4cccc1c24)CC3 (configuration not stated) | 46.5
5 | 41.934 (≈ 106 µM) | Cc1ccc2[nH]c3c(c2c1)CCC1(C2C(=O)Nc4ccccc42)NC(=O)C(C#N)=C31 (configuration not stated) | 47.4
6 | 13.931 (≈ 32.5 µM) | Cc1ccc2c3c([nH]c2c1)C1=C(C#N)C(=O)NC1(C1C(=O)Nc2ccc(Cl)cc21)CC3 (configuration not stated) | 15.8
7 | 40.037 (≈ 78.9 µM) | Cc1ccc2c3c([nH]c2c1)C1=C(C#N)C(=O)NC1(C1c2ccccc2-c2nc4cc(C)c(C)cc4nc21)CC3 (configuration not stated) | 50.2
8 | 28.251 (≈ 65.8 µM) | Cc1ccc2c3c([nH]c2c1)C1=C(C#N)C(=O)NC1(C1C(=O)c2cccc4cccc1c24)CC3 (configuration not stated) | 31.6
9 | 13.228 (≈ 75.1 µM) | O=C1O[C@H]([C@@H](O)CO)C(O)=C1O [ASCORBIC ACID] | –
